“Also recorded” adds a separate entry of the source. Where two headings read alike, the source gives them in different places. Ends that are not written are not given here.
Experiments:
AM receptors = assay: 125I-AM receptor binding, MCF-7; design: species or system human; conditions: MCF-7 as representative cancer line
Protocol: j. Receptor Binding: Receptor binding analysis were performed as previously described (Moody, T. W., et al., Proc. Natl. Acad. Sci. U.S.A. 90:4345-4349 (1993)). Briefly, cells (5×10^4) were placed in 24-well plates coated with fibronectin (20 μg). When a monolayer is formed, the cells were washed 4 times in TIS buffer followed by incubation with receptor binding medium (TIS plus 1% BSA and 1 mg/ml bacitracin). […] After washing the cells 4 times in receptor binding buffer at 4° C., they were dissolved in 0.2 N NaOH and counted on a gamma counter.

AM receptor = assay: cAMP assay (RIA), MCF-7; type: cell-based, human; conditions: MCF-7
Protocol: k. cAMP Assays: Cyclic AMP was assayed by RIA using a kit obtained from New England Nuclear (Boston, Mass.). […] The supernatants were tested for cAMP using the RIA kit following the manufacturer's instructions.

E. coli [1] = assay: Microdilutional timed kill assay, E. coli; type: cell-based, Escherichia coli; conditions: for growth inhibitory activity against E. coli, comparative: microdilution, 6 hours, FIG. 22
Protocol: (§1) Inhibition of growth of E. coli was assessed in a microdilutional timed kill assay. (See FIG. 22) Bacteria and Candida albicans were grown overnight on trypticase soy agar (TSA) and Sobouraud dextrose agar (SDA) plates, respectively, were suspended into RPMI-1640 medium (Bio-Whittaker) and adjusted to a final concentration of 8×10^3 cfu/ml in […] in plastic microdilution trays. AM-related peptides, magainins, and albumin were added in equimolar concentrations ranging from 8 μM to 300 μM. Plates were incubated at 37° C. with gentle agitation over 24 hours. At 6 hr and 24 hr time points, 10 to […] aliquots from each well were quantitatively cultured by serial 100-fold dilutions onto TSA and SDA plates.

P. aeruginosa = assay: Micro-/macrodilution timed kill assay, P. aeruginosa; type: cell-based, Pseudomonas aeruginosa; conditions: 24 hours exposure compared with 6 hours incubation
Protocol: as §1, with “AM-related peptides, magainins, and albumin were added in equimolar concentrations ranging from 8 μM to 300 μM.” left out
(§2) Data were compiled from six experiments. Macrodilution assays were performed in 12×75 mm borosilicate glass tubes. Organisms were grown and harvested, as described in Roilides, E., et al., J Infect Dis. 163:579 (1991), and adjusted to a final inoculum concentration of 8×10^3 cfu/ml in 400 μl. […] Tubes were incubated at 37° C. with gentle agitation over 24 hours. At 6 and 24 hour time points, 100 μl aliquots from each tube were quantitatively cultured by serial 100-fold dilutions onto TSA and SDA plates.

C. albicans = assay: Micro-/macrodilutional assay, C. albicans; type: cell-based, Candida albicans
Protocol: as §1, with “AM-related peptides, magainins, and albumin were added in equimolar concentrations ranging from 8 μM to 300 μM.” left out
as §2

S. aureus = assay: Micro-/macrodilutional assays, S. aureus; type: cell-based, Staphylococcus aureus; conditions: microdilutional or macrodilutional assays
Protocol: as §1, with “AM-related peptides, magainins, and albumin were added in equimolar concentrations ranging from 8 μM to 300 μM.” left out
as §2

E. coli [2] = assay: Macrodilution assay, E. coli; type: cell-based, Escherichia coli; conditions: for antimicrobial activity, macrodilution, 6 hours: 6 hours incubation
Protocol: as §2

Isoelectric point = type: physicochemical
rat mast cells = conditions: compared with magainin-2 / AM
[3] = system: E. coli, P. aeruginosa, C. albicans, S. aureus; assay: Antimicrobial dilution assays against bacterial and fungal pathogens; type: cell-based; conditions: microdilutional assay
Protocol: In order to assess the antimicrobial activity of AM and its gene related peptides, both microdilution and macrodilution assays were performed against Escherichia coli (E. coli), Staphylococcus aureus (S. aureus), Pseudomonas aeruginosa (P. aeruginosa) and Candida albicans (C. albicans). A germination assay was also performed in order to further assess anti-candidal activity (Ghannoum, M. A. and Radwan, S. S., Candida Adherence to Epithelial Cells. CRC Press; Boca Raton, Fla. 1990 pp. 72-104).
as §1
The antimicrobial activity of AM and PAMP was determined in a macrodilution assay after 6 hours of incubation of E. coli. […] Data were compiled from six experiments. Macrodilution assays were performed in 12×75 mm borosilicate glass tubes. Organisms were grown and harvested, as described in Roilides, E., et al., J Infect Dis. 163:579 (1991), and adjusted to a final inoculum concentration of 8×10^3 cfu/ml in 400 μl. AM-related peptides, magainins, and albumin were added in equimolar concentrations ranging from 8 μM to 300 μM. Tubes were incubated at 37° C. with gentle agitation over 24 hours. At 6 and 24 hour time points, 100 μl aliquots from each tube were quantitatively cultured by serial 100-fold dilutions onto TSA and SDA plates.

RINm cells = assay: 125I-AM binding to RINm cells; conditions: 0.2 nM per 5×10^5 cells
From the text: (§3) A similar mechanism has been described for amylin (R. A. Pittner et al., J. Cell. Biochem. 55S, 19 (1994)).

NCI-H1264 = assay: 125I-AM binding to NCI-H1264 cells; design: species or system human; conditions: 0.2 nM per 5×10^5 cells; NCI-H1264 positive control
From the text: as §3

ARLDVASEFRKKWNKWALSR-NH2 [PAMP-20, ARLDVASEFRKKWNKWALSR-NH2]
competition for 125I-AM binding (AM receptors): not competitively blocked | effect on cAMP (AM receptor): no effect | activity against E. coli (E. coli [1]; after 6 hours of incubation): activity | growth inhibitory activity against E. coli, comparative (E. coli [1]): higher growth inhibitory activity than albumin | antimicrobial activity against P. aeruginosa, 24 hours versus 6 hours (P. aeruginosa): greater antimicrobial activity | antimicrobial effect against C. albicans (C. albicans): 79.7%±2.4 | activity against C. albicans (C. albicans; after 6 hours of incubation): activity | growth suppressive activity against S. aureus (S. aureus): ineffective; also recorded: no apparent growth suppressive activity | antimicrobial activity, macrodilution, 6 hours (E. coli [2]; E. coli): greater activity | isoelectric point (Isoelectric point): 10.1 | isoelectric point (Isoelectric point; listed as PAMP): 11.1 | relative potency in inducing histamine release (rat mast cells): twenty times more potent

Magainin [reference compound]
growth inhibitory activity against E. coli, comparative (E. coli [1]): greater inhibitory activity | potency against C. albicans, comparative (C. albicans): more potent than AM and PAMP | antimicrobial activity, macrodilution, 6 hours (E. coli [2]; E. coli): moderate activity | antimicrobial activity, macrodilution, 24 hours (E. coli [2]; E. coli, 24 hours incubation): significantly greater in antimicrobial activity than either AM or PAMP; also recorded: more potent than either AM | optical clarity of bacterial suspension (E. coli [2]; macrodilution): optically clear suspension of bacteria

TVQKLAHQIYQFTDKDKDNVAPRSKISPQGY-NH2 [PO72]
competition for 125I-AM binding (AM receptors): not competitively blocked | effect on cAMP (AM receptor): no effect | activity against these pathogens [3]: little or no activity

Y-G-G-H-Q-I-Y-Q-F-T-D-K-D-NH2 (YGGHQIYQFTDKD-NH2) [PO71, ID; NO]
activity against these pathogens [3]: little or no activity

Y-Y-W-N-K-W-A-L-S-R-NH2 (YYWNKWALSR-NH2) [PO70, ID; NO]
activity against these pathogens [3]: little or no activity

^125I-AM: iodinated AM ligand (Phoenix Pharmaceuticals)
binding of 125I-AM (RINm cells): 25 cpm | binding of 125I-AM (NCI-H1264): 2265 cpm
